From patent US10829496B2, “Thienopyridines and benzothiophenes useful as IRAK4 inhibitors” (BRISTOL-MYERS SQUIBB COMPANY, priority 2017, dated 2020)

What was measured:
[1] = test system: IL-6 levels in human whole blood stimulated with a TLR2 agonist; assay: IRAK4 Whole Blood Assay (TLR2 agonist lipoteichoic acid-stimulated IL-6); format: cell-based; details: 10 μg/mL lipoteichoic acid, 5 hours, IL-6 readout
Procedure: Human whole blood containing the anti-coagulant ACD-A was plated in 384-well plate (25 μL/well) and incubated with compounds for 60 minutes at 37° C. in a 5% CO2 incubator. The blood was stimulated with a TLR2 agonist, 10 μg/mL final concentration of lipoteichoic acid (Invivogen, San Diego, Calif.) in 25 μL RPMI (Gibco) for 5 hours in a 5% CO2 incubator. At the end of the incubation, plates were centrifuged at 2300 rpm for 5 minutes. Supernatants were harvested and analyzed for IL-6 levels by Flow Cytometry beads assay (BD Biosciences, San Jose, Calif.).

[2] = target: IRAK4 (Homo sapiens (Human), UniProt Q9NWZ3); assay: IRAK4 Inhibition Assay; format: biochemical; details: ATP 500 μM; IRAK4 0.6 nM; 60 min at room temperature
Procedure: The assays were performed in U-bottom 384-well plates. The final assay volume was 30 μL prepared from 15 μL additions of enzyme and substrates (fluoresceinated peptide and ATP) and test compounds in assay buffer (20 mM HEPES pH 7.2, 10 mM MgCl2, 0.015% Brij 35 and 4 mM DTT). The reaction was initiated by the combination of IRAK4 with substrates and test compounds. The reaction mixture was incubated at room temperature for 60 min. and terminated by adding 45 μL of 35 mM EDTA to each sample. The reaction mixture was analyzed on the Caliper LABCHIP® 3000 (Caliper, Hopkinton, Mass.) by electrophoretic separation of the fluorescent substrate and phosphorylated product. Inhibition data were calculated by comparison to no enzyme control reactions for 100% inhibition and vehicle-only reactions for 0% inhibition. The final concentrations of reagents in the assays are ATP, 500 μM; FL-IPTSPITTTYFFFKKK peptide 1.5 μM; IRAK4, 0.6 nM; and DMSO, 1.6%.

[3] = Caco-2 Permeability Assay; format: in vitro ADME; details: human, 3 μM compound, 2 hours at 37° C., direction not given
Procedure: Caco-2 Permeability Assay
Thirteen to 27 days prior to assay, Caco-2 cells were seeded onto collagen-coated polycarbonate filter membranes in 24-well transwell plates at a density of 1.45×10^5 cells/cm^2, approximately 4.8×10^4 cells per well. The cells were grown in a culture medium consisting of DMEM supplemented with 10% fetal bovine serum, 10 mM HEPES, 1% nonessential amino acids, 2 mM L-glutamine, 100 U/mL penicillin-G, and 100 μg/mL streptomycin. The culture medium was replaced every 3 days and the cells were maintained at 37° C. in a 95% relative humidity and 5% CO2 atmosphere. The cells were evaluated for tight junction formation just prior to assay. The test compound was solubilized to 10 mM in 100% DMSO and diluted to 3 μM in assay buffer. Permeability studies were initiated by adding 200 μL assay buffer plus/minus compound to the apical transwell compartment and 600 μL assay buffer plus/minus compound to the basolateral compartment of the 24-well transwell low-binding cluster plate. For apical-to-basolateral (A to B) permeability (absorptive direction), buffer containing compound was placed in the apical compartment (donorwells), while buffer alone was placed in the corresponding basolateral compartments (receiverwells). For basolateral-to-apical (B to A) permeability (secretive direction), buffer containing compound was placed in the basolateral compartment (donor wells), while buffer alone was placed in the corresponding apical compartments (receiver wells). Transwells were then incubated for 2 hours at 37° C. in a 95% relative humidity and 5% CO2 atmosphere with gentle agitation. Following incubation, 100 μL was removed from each apical and basolateral compartment and transferred to 96-well low binding plates that had been previously loaded with 100 μL/well of acetonitrile containing 250 nM propranolol, 250 nM diclofenac, and 500 nM tolbutamide as internal standards. The samples were subsequently analyzed by LC-MS/MS to determine concentrations of compound.

Chain of IRAK4 (Q9NWZ3 whole entry): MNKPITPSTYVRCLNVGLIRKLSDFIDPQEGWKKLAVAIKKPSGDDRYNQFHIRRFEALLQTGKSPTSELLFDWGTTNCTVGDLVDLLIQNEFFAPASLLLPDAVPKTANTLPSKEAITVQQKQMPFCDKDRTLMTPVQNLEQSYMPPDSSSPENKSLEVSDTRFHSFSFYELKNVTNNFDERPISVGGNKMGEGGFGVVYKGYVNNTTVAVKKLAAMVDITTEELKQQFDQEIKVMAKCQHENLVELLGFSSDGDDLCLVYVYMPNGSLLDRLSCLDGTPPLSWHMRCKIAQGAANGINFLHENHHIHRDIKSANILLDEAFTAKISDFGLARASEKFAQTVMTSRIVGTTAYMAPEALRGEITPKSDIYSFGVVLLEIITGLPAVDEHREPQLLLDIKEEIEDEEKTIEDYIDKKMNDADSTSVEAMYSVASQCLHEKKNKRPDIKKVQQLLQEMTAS

| Compound | EC50 [1] [nM] | IC50 [2] [nM] | Papp at 2 h, 3 µM [3] [×10⁻⁶ cm/s] |
| --- | --- | --- | --- |
| CC[C@@H]1CC(=O)N[C@@H]1COc1csc2cc(C(N)=O)c(OC3CC3)nc12 [Example 20, 5-cyclopropoxy-3-(((2S,3R)-3-ethyl-5-oxopyrrolidin-2-yl)methoxy)thieno[3,2-b]pyridine-6-carboxamide] | 473 | 19.1 |  |
| CCC1C[C@@H](COc2csc3cc(C(N)=O)c(OC)nc23)NC1=O (single isomer, unassigned) [Example 15] |  | 63.4 |  |
| CC[C@@H]1[C@H](F)C(=O)N[C@@H]1COc1csc2cc(C(N)=O)c(OC)cc12 [Example 4, 3-(((2S,3S,4S)-3-ethyl-4-fluoro-5-oxopyrrolidin-2-yl)methoxy)-5-methoxybenzo[b]thiophene-6-carboxamide] | 153 | 0.4 | 8.5 |
| COc1nc2c(OC[C@@H]3CC(C)C(=O)N3)csc2cc1C(N)=O (single isomer, unassigned) [Example 13] |  | 36.2 |  |
| COc1nc2c(OC[C@@H]3CCC(=O)N3)csc2cc1C(N)=O [Example 5, (S)-5-methoxy-3-((5-oxopyrrolidin-2-yl)methoxy)thieno[3,2-b]pyridine-6-carboxamide] | 2010 | 20.3 |  |
| COc1nc2c(OCC3COCC(=O)N3)csc2cc1C(N)=O (racemic) [Example 7, 5-methoxy-3-((5-oxomorpholin-3-yl)methoxy)thieno[3,2-b]pyridine-6-carboxamide] |  | 615 |  |
| CC[C@@H]1[C@H](F)C(=O)N[C@@H]1COc1csc2cc(C(N)=O)c(OC)nc12 [Example 2, 3-(((2S,3S,4S)-3-Ethyl-4-fluoro-5-oxopyrrolidin-2-yl)methoxy)-5-methoxythieno[3,2-b]pyridine-6-carboxamide] | 205 | 1.2 | 7.3 |
| CC[C@@H]1[C@H](F)C(=O)N[C@@H]1COc1csc2cc(C(N)=O)c(OC(C)C)nc12 [Example 23, 3-(((2S,3S,4S)-3-ethyl-4-fluoro-5-oxopyrrolidin-2-yl)methoxy)-5-isopropoxythieno[3,2-b]pyridine-6-carboxamide] | 189 | 1.4 | 18.4 |
| CC[C@H]1[C@@H](COc2csc3cc(C(N)=O)c(OC)nc23)NC(=O)[C@@H]1F [Example 8, 3-(((2S,3S,4R)-3-ethyl-4-fluoro-5-oxopyrrolidin-2-yl)methoxy)-5-methoxythieno[3,2-b]pyridine-6-carboxamide] | 92 | 0.7 | 4.2 |
| COc1nc2c(OC[C@@H]3CCC(=O)N3)c(C)sc2cc1C(N)=O [Example 25, (S)-5-methoxy-2-methyl-3-((5-oxopyrrolidin-2-yl)methoxy)thieno[3,2-b]pyridine-6-carboxamide] |  | 128 |  |
| COc1cc2c(OC[C@@H]3CCC(=O)N3)csc2nc1C(N)=O [Example 3, (S)-5-Methoxy-3-((5-oxopyrrolidin-2-yl)methoxy)thieno[2,3-b]pyridine-6-carboxamide] |  | 558 |  |
| CC[C@@H]1CC(=O)N[C@@H]1COc1csc2cc(C(N)=O)c(OC)nc12 [Example 6, 3-(((2S,3R)-3-ethyl-5-oxopyrrolidin-2-yl)methoxy)-5-methoxythieno[3,2-b]pyridine-6-carboxamide] | 3210 | 1 | 8.1 |
| COc1nc2c(OC[C@H]3NC(=O)C[C@H]3C(F)F)csc2cc1C(N)=O [Example 12, 3-(((2S,3R)-3-(difluoromethyl)-5-oxopyrrolidin-2-yl)methoxy)-5-methoxythieno[3,2-b]pyridine-6-carboxamide] | 261 | 2.5 |  |
| 3-(46S,7R)-7-ethyl-4-oxo-5-azaspiro[2.4]heptan-6-yl)methoxy)-5-methoxythieno[3,2-b]pyridine-6-carboxamide [Example 9] |  | 130 |  |
| CC[C@@H]1CC(=O)N[C@@H]1COc1csc2cc(C(N)=O)c(OC)cc12 [Example 29] | 363 | 0.9 |  |
| CC[C@@H]1CC(=O)N[C@@H]1COc1c(C)sc2cc(C(N)=O)c(OC)nc12 [Example 19, 3-(((2S,3R)-3-ethyl-5-oxopyrrolidin-2-yl)methoxy)-5-methoxy-2-methylthieno[3,2-b]pyridine-6-carboxamide] | 3300 | 10.6 | 22.5 |
| CC[C@@H]1[C@H](F)C(=O)N[C@@H]1COc1csc2cc(C(N)=O)c(OC3CC3)nc12 [Example 24, 5-cyclopropoxy-3-(((2S,3S,4S)-3-ethyl-4-fluoro-5-oxopyrrolidin-2-yl)methoxy)thieno[3,2-b]pyridine-6-carboxamide] | > 10000 | 20.2 |  |
| COc1nc2c(OC[C@H]3NC(=O)[C@H](F)[C@H]3C)csc2cc1C(N)=O [Example 27, 3-(((2S,3S,4R)-4-fluoro-3-methyl-5-oxopyrrolidin-2-yl)methoxy)-5-methoxythieno[3,2-b]pyridine-6-carboxamide] | 58 | 1.1 | 5.9 |
| COc1nc2c(OC[C@H]3NC(=O)C[C@H]3C)csc2cc1C(N)=O [Example 17, 5-methoxy-3-(((2S,3R)-3-methyl-5-oxopyrrolidin-2-yl)methoxy)thieno[3,2-b]pyridine-6-carboxamide] | 893 | 6 |  |
| COc1nc2c(OC[C@H]3NC(=O)[C@H](F)[C@H]3C3CC3)csc2cc1C(N)=O [Example 18, 3-(((2S,3S,4R)-3-cyclopropyl-4-fluoro-5-oxopyrrolidin-2-yl)methoxy)-5-methoxythieno[3,2-b]pyridine-6-carboxamide] | 962 | 2.8 |  |
| COc1nc2c(OC[C@H]3NC(=O)C(F)(F)[C@H]3C)csc2cc1C(N)=O [Example 21, 3-(((2S,3S)-4,4-difluoro-3-methyl-5-oxopyrrolidin-2-yl)methoxy)-5-methoxythieno[3,2-b]pyridine-6-carboxamide] | 127 | 1.3 | 13.6 |
| COc1nc2c(OC[C@@H]3C[C@@H](F)C(=O)N3)csc2cc1C(N)=O [Example 11, 3-(((2S,4R)-4-fluoro-5-oxopyrrolidin-2-yl)methoxy)-5-methoxythieno[3,2-b]pyridine-6-carboxamide] | 473 | 4 |  |
| CC[C@H]1[C@@H](COc2csc3cc(C(N)=O)c(OC)nc23)NC(=O)C1(F)F [Example 1, 3-(((2S,3S)-3-Ethyl-4,4-difluoro-5-oxopyrrolidin-2-yl)methoxy)-5-methoxythieno[3,2-b]pyridine-6-carboxamide] | 58 | 0.6 | 10.2 |
| CC[C@@H]1[C@H](F)C(=O)N[C@@H]1COc1c(C)sc2cc(C(N)=O)c(OC)nc12 [Example 22, 3-(((2S,3S,4S)-3-ethyl-4-fluoro-5-oxopyrrolidin-2-yl)methoxy)-5-methoxy-2-methylthieno[3,2-b]pyridine-6-carboxamide] |  | 33.6 |  |
| COc1nc2c(OC[C@@H]3CC(C)C(=O)N3)csc2cc1C(N)=O (single isomer, unassigned) [Example 14] |  | 459 |  |
| CCC1C[C@@H](COc2csc3cc(C(N)=O)c(OC)nc23)NC1=O (single isomer, unassigned) [Example 16] |  | 98.1 |  |
| CC[C@@H]1OC(=O)N[C@@H]1COc1csc2cc(C(N)=O)c(OC)nc12 [Example 26, 3-(((4R,5S)-5-ethyl-2-oxooxazolidin-4-yl)methoxy)-5-methoxythieno[3,2-b]pyridine-6-carboxamide] |  | 6.8 | 3.5 |
